Test [1] deals with Pseudomonas Fluorescens. Conditions: well water, 72° F. On the procedure:
The biocidal activity of THPS/oxidizing breaker compositions against Pseudomonas Fluorescens was examined. In the first experiment, 2 L of well water was inoculated with 4 mL of a Nutrient Broth containing live Pseudomonas f. and stirred using an overhead mixer at 2000 rpm. After thorough mixing, and with the mixer running, 150 mL samples were taken with a syringe and inserted into separate bottles. The first and last bottles were left without biocide or breaker to act as controls. The remaining samples were treated with varying concentrations of biocide and oxidizing breakers.
Biocidal activity analysis was completed using a […]® PhotonMaster™ luminometer and Quench-Gone™ Organic Modified (QGO-M) ATP test kit. At the initial time (Time 0), both control samples were tested using the ATP kit. All samples were then left at ambient lab temperature (72° F.). All samples (20 mL each) were then tested using the ATP kit at one hour and at 24 hours.

The test system of test [2] is Pseudomonas Fluorescens. The test is classed as cell-based. Conditions: breaker 1.0 gpt added to 0.25 gpt biocide; 1% KCl water pH 7.7, 77° F., 1 h and 5 h. On the procedure: 500 mL of 1% KCl water, buffered with sodium bicarbonate to pH 7.7 was inoculated with 10 mL of a Nutrient Broth containing live Pseudomonas f. and blended on a Waring lab blender at 2000 rpm for 5 minutes. After blending, it was separated into 30 mL samples in separate bottles. The first and last bottles were left without biocide or breaker to act as controls. The remaining samples were treated with varying concentrations of biocide and oxidizing breakers.
Biocidal activity analysis was completed using a […]® PhotonMaster™ luminometer and Quench-Gone™ Organic Modified (QGO-M) ATP test kit. At the initial time (Time 0), both control samples were tested using the ATP kit. All samples were then incubated at 77° F. All samples (5 mL) were then tested using the ATP kit at one hour and again at 5 hours.

“tetrakis(hydroxymethyl)phosphonium sulphate [THPS]”: in the test with Pseudomonas Fluorescens [1] (THPS 20% 0.25 or 0.50 gpt with sodium persulfate, hydrogen peroxide 7% or sodium chlorite 8%, 1 h and 24 h), the “compatibility of biocidal activity with oxidizing breakers (ATP analysis)” value is reported as “no apparent incompatibility”. In addition, the “effect of addition of the breakers on biocidal properties (ATP analysis)” value with Pseudomonas Fluorescens [1] (THPS concentration of 0.25 gpt, 1 h and 24 h (FIG. 5)) is on record as “appears to enhance or accelerate the biocidal properties”.

For sodium chlorite [sodium chlorite 8%], in the test with Pseudomonas Fluorescens [2], the “effect of added breaker on decrease in microbial activity (ATP analysis)” value is “may be accelerated or enhanced slightly”. Still for that read-out and setting: then `OO` [hydrogen peroxide 7%, hydrogen peroxide], with “may be accelerated or enhanced slightly”.

For the origin of these results see patent US10836954B2 (priority 2015, dated 2020).
